Where two headings read alike, the source gives them in different places.
Legend:
[1] = test system: mouse leukemia L1210 cells; assay: Effectiveness against mouse leukemia L1210 cells (in vitro test), cytotoxicity by trypan blue dye exclusion; format: cell-based; settings: L1210 cells, 3 days, 37° C., read-out: IC50 (mean dose producing 50%-killing of tumor cells)
Method: Effectiveness against mouse leukemia L1210 cells (in vitro test)
A suspension of cells in culture medium was transferred into wells in a microplate in an amount of 1×10^5 L1210-cells/well. Test sample diluted with a culture medium was added to the suspension in each well, and the mixture was incubated on the medium at 37° C. for 3 days in an atmosphere of air containing 5% carbon dioxide.
Thereafter, the incubated cells were recovered from the microplate and the number of live cells was counted by the dye exclusion test using a 0.5% solution of trypan blue and by using a hemocytometer.

Ehrlich solid tumor = assay: Test 2: Anti-tumor test against Ehrlich solid tumor; format: in vivo, ddY/SLC mice; settings: i.p., days 1 through 9, tumor weight day 21; for inhibition in vivo at 100 mg/kg / inhibition in vivo at 50 mg/kg: Mus musculus, Ehrlich, ip, 504 h, read-out: Growth Inhibition Rate
Method: Anti-tumor test against Ehrlich solid tumor
Ehrlich tumor cells, 2×10^6, on Day 7 after intraperitoneal transplantation to ddY/SLC mice, were subcutaneously transplanted in the left abdomen of ddY/SLC mice (5week age, male)--10 to a group. The active component was intraperitoneally administered in a definite dose 24 hours after the transplantation. (administration: once per one day; 1 through 9 days)
Growth inhibition rate (%)=(C-T)/C×100
T: mean tumor weight in the active component-administered group
c: mean tumor weight in the control group

| Molecule | IC50 ([1]; Mus musculus, 72 h) [µM] | inhibition in vivo at 100 mg/kg (Ehrlich solid tumor; 100 mg/kg) [%] | further results |
| --- | --- | --- | --- |
| CNC(=O)C(C)(C)CCCCOc1ccc(OCCCCCn2ccnc2)cc1 [Example 49, 6-[p-[5-(1-imidazolyl)pentyloxy]phenoxy]-2,2-dimethylhexanoic acid methylamide] | 5.5 |  |  |
| CC(C)(C)OC(=O)C(C)(C)CCCCOc1ccc(OCCCCCn2ccnc2)cc1 [Example 6] | 6.8 | 43.8 |  |
| CCOC(=O)C(C)(C)CCCCOc1ccc(OCCCCCSc2ncccn2)cc1 [Example 24, ethyl 6-[p-[5-(2-pyrimidylthio)pentyloxy]phenoxy]-2,2-dimethylhexanoate] | 20.6 | 31.7 |  |
| CCOC(=O)C(C)(C)CCCCOc1ccc(OCCCCCSc2nnc(N)s2)cc1 [Example 33] | 7.7 | 59.5 |  |
| 6[p-[5-(1-imidazolyl)pentyloxy]phenoxy]-2,2-dimethylhexaneheptylamide [Example 61] |  |  | IC50 [1]: 5.9 µM; Growth Inhibition Rate (Ehrlich solid tumor; 100 mg/kg): 38.9% |
| CCOC(=O)C(C)(C)CCCCOc1ccc(OCCCCCOc2ccncc2)cc1 [Example 41] | 7.4 | 38.7 |  |
| CCOC(=O)C(C)(C)CCCCOc1ccc(OCCCCCOc2cccnc2)cc1 [Example 14] | 4.2 |  |  |
| CCOC(=O)C(C)(C)CCCCOc1ccc(OCCCCCOc2ccccn2)cc1 [Example 35, ethyl 6-[p-[5-(2-pyridyloxy)pentyloxy]phenoxy]-2,2-dimethylhexanoate] | 8.6 | 35.9 |  |
| NC(=O)CCCCCOc1ccc(OCCCCCn2ccnc2)cc1 [Example 56] | 13.8 | 30.2 |  |
| CCOC(=O)C(C)(C)CCCCOc1ccc(OCCCCCn2cccn2)cc1 [Example 16] | 8.2 | 42.2 |  |
| CCOC(=O)C(C)(C)CCCCOc1ccc(OCCCCCSc2nc3ncccc3[nH]2)cc1 [Example 43, ethyl 6-[p-[5-(1H-imidazo[4,5-b]pyridin-2-ylthio)pentyloxy]phenoxy]-2,2-dimethylhexanoate] | 8 | 55.5 |  |
| CC(C)(CCCCOc1ccc(OCCCCCn2ccnc2)cc1)C(=O)NC1CCCCC1 [Example 52] | 3.6 | 55.7 |  |
| CCOC(=O)C(C)(C)CCCCOc1ccc(OCCCCCOc2ccccc2-c2ccccc2)cc1 [Example 40] |  | 46.9 |  |
| CCOC(=O)C(C)(C)CCCCOc1ccc(OCCCCCn2cncn2)cc1 [Example 48, ethyl 6-[p-[5-(1,2,4-triazol-1-yl)pentyloxy]phenoxy]-2,2-dimethylhexanoate] | 5.5 | 46.3 |  |
| CCOC(=O)COc1ccc(OCCCCCn2ccnc2)cc1 [Example 10, ethyl p-[5-(1-imidazol-yl)pentyloxy]phenoxyacetate] |  | 23.7 |  |
| Cn1ccnc1SCCCCCOc1ccc(OCCCCC(C)(C)C(N)=O)cc1 [Example 30] | 2.3 | 60.9 |  |
| CC(C)(C#N)CCCCOc1ccc(OCCCCCn2ccnc2)cc1 [Example 55, 6-[p-[5-(1-imidazolyl)pentyloxy]phenoxy]-2,2-dimethylhexane-nitrile] | 3.8 |  | inhibition in vivo at 50 mg/kg (Ehrlich solid tumor; 50 mg/kg): 63.1% |
| CCOC(=O)C(C)(C)CCCCOc1ccc(OCCCCCSc2nccc(O)n2)cc1 [Example 28] | 18.9 |  |  |
| CCOC(=O)C(C)(C)CCCCOc1ccc(OCCCCCn2cnc3cncnc32)cc1 [Example 39] | 4.1 |  |  |
| CCOC(=O)C(C)(C)CCCCOc1ccc(OCCCCCn2cccc2)cc1 [Example 15] | 28.9 | 38.8 |  |
| Cn1nnnc1SCCCCCOc1ccc(OCCCCC(C)(C)C(N)=O)cc1 [Example 34] | 4 |  |  |
| CCOC(=O)C(C)(C)CCCCOc1ccc(OCCCCCSc2ccncc2)cc1 [Example 19, ethyl 6-[p-[5-(4-pyridylmercapto)pentyloxy]phenoxy]-2,2-dimethylhexanoate] | 5.7 | 47.6 |  |
| CCOC(=O)C(C)(C)CCCCOc1ccc(OCCCCCSc2ncnc3[nH]cnc23)cc1 [Example 32] | 2.2 | 57.5 |  |
| 6-[3-[6-[5-(1-imidazolyl]pyridadyloxy]]-2,2-dimethylhexanoic acid ethyl ester [Example 60] |  |  | IC50 [1]: 3.7 µM; Growth Inhibition Rate (Ehrlich solid tumor; 50 mg/kg): 40.5% |
| CCOC(=O)C(C)(C)CCCCOc1ccc(OCCCCCSc2nnnn2C)cc1 [Example 22, ethyl 6-[p-[5-(1-methyl-5-tetrazolylmercapto)pentyloxy]phenoxy]-2,2-dimethylhexanoate] | 6.7 | 40.2 |  |

| Molecule | IC50 ([1]; Mus musculus, 72 h) [µM] | inhibition in vivo at 100 mg/kg (Ehrlich solid tumor; 100 mg/kg) [%] | further results |
| --- | --- | --- | --- |
| CCOC(=O)C(C)(C)CCCCOc1ccc(OCCCCCSc2nc3ccccc3s2)cc1 [Example 26] | 42.7 | 30 |  |
| CCOC(=O)C(C)(C)CCCCOc1ccc(OCCCCCSc2nc3ccccc3[nH]2)cc1 [Example 27] | 4.2 |  |  |
| CCOC(=O)C(C)(C)CCCCOc1ccc(OCCCCCOCCc2ccccn2)cc1 [Example 18] | 9.5 | 34.9 |  |
| OCCCCCCOc1ccc(OCCCCCn2ccnc2)cc1 [Example 9] | 12 | 30.7 |  |
| CC(C)(CCCCOc1ccc(OCCCCCn2ccnc2)cc1)C(N)=O [Example 1, 6-[p-[5-(1-imidazol-yl)pentyloxy]phenoxy]-2,2-dimethylhexanamide] | 7.2 | 68.5 |  |
| CCOC(=O)C(C)(C)CCCCOc1ccc(OCCCCCn2cnc3ccccc32)cc1 [Example 36] | 3.8 |  |  |
| CCOC(=O)C(C)(C)CCCCOc1ccc(OCCCCCOCc2ccccn2)cc1 [Example 17] | 13.7 |  | inhibition in vivo at 50 mg/kg (Ehrlich solid tumor; 50 mg/kg): 36.6% |
| COc1ccc(OCCCCCn2ccnc2)cc1 [Example 11, 1-[5-(1-imidazolyl)pentyloxy]-4-methoxybenzene] | 40 | 33.4 |  |
| CCOC(=O)C(C)(C)CCCCSc1nnc(SCCCCCn2ccnc2)s1 [Example 42, ethyl 6-[2-[5-(1-imidazolyl)pentylthio)-1,3,4-thiadiazol-5-ylthio]-2,2-dimethylhexanoate] | 4.4 |  | inhibition in vivo at 50 mg/kg (Ehrlich solid tumor; 50 mg/kg): 53.1% |
| CC(C)(CCCCOc1ccc(OCCCCCn2ccnc2)cc1)C(=O)Nc1ccccc1 [Example 53] | 4.3 | 49.3 |  |
| COC(=O)CCCCC(=O)Oc1ccc(OCCCCCn2ccnc2)cc1 [Example 12] | 8.5 |  |  |
| CC(C)(CCCCOc1ccc(OCCCCCSc2ccncc2)cc1)C(N)=O [Example 31] | 2.6 | 48.9 |  |
| CCOC(=O)C(C)(C)CCCCOc1ccc(OCCCCCSC2=NCCS2)cc1 [Example 25] | 23.5 |  |  |
| CCOC(=O)C(C)(C)CCCCOc1ccc(OCCCCCSc2cccc[n+]2[O-])cc1 [Example 23] | 6.1 |  |  |
| CCCCCCCCCOc1ccc(OCCCCCn2ccnc2)cc1 [Example 7, [p-[5-(1-imidazolyl)pentyloxy]phenoxy]nonane] | 11 | 45 |  |
| CC(C)(CCCCOc1ccc(OCCCCCn2cccn2)cc1)C(N)=O [Example 4] | 4.9 | 50.1 |  |
| CCOC(=O)C(C)(C)CCCCOc1cccc(OCCCCCn2ccnc2)c1 [Example 37] | 4.6 |  |  |
| CC(C)(CCCCOc1ccc(OCCCCCn2ccnc2)cc1)C(=O)OCc1ccccc1 [Example 5, benzyl 6-[p-[5-(1-imidazolyl)pentyloxy]phenoxy]-2,2-dimethylhexanoate] | 6.3 | 39.3 |  |
| CCOC(=O)C(C)(C)CCCCOc1ccc(OCCCCCOCc2cccnc2)cc1 [Example 13, ethyl 6-[p-[5-(3-pyridylmethyloxy)pentyloxy]phenoxy]-2,2-dimethylhexanoate] | 7.6 |  |  |
| CC(C)(CCCCOc1ccc(OCCCCCSc2nc3cccnc3[nH]2)cc1)C(N)=O [Example 44] | 3.7 | 46.1 |  |
| CC(C)(CCCCOc1ccc(OCCCCCn2ccnc2)cc1)C(=O)NCc1ccccc1 [Example 3] | 4 |  | inhibition in vivo at 50 mg/kg (Ehrlich solid tumor; 50 mg/kg): 58.5% |
| CN(C)C(=O)C(C)(C)CCCCOc1ccc(OCCCCCn2ccnc2)cc1 [Example 50] | 1.8 |  |  |
| CCOC(=O)C(C)(C)CCCCOc1ccc(OCCCCCSc2nccn2C)cc1 [Example 20] | 8.2 | 52.8 |  |
| CCCCCCCCCCNC(=O)C(C)(C)CCCCOc1ccc(OCCCCCn2ccnc2)cc1 [Example 51] | 0.6 |  | inhibition in vivo at 50 mg/kg (Ehrlich solid tumor; 50 mg/kg): 42.5% |
| CC(C)NC(=O)C(C)(C)CCCCOc1ccc(OCCCCCn2ccnc2)cc1 [Example 2] | 7.5 |  | inhibition in vivo at 50 mg/kg (Ehrlich solid tumor; 50 mg/kg): 52.9% |
